Measured values taken from ChEMBL document CHEMBL1201862, “PubChem BioAssay data set” (2004).
Calls of active or inactive are those of the source. Cut-off read from the data, not from the text of the source, for most assays here: actives have a measured EC50 and inactives only a lower limit.

Assays:
[1] = Fluorescence-based cell-based high throughput dose response assay for inhibitors of the interaction of nucleotide-binding oligomerization domain containing 2 (NOD2) and the receptor-interacting serine-threonine kinase 2 (RIPK2).; format: functional; conditions: Homo sapiens
[2] = molecular target: Beta-galactosidase (Escherichia coli, UniProt Q8VNN2); assay: PubChem AID 485352; format: functional
Sequence of Beta-galactosidase (Q8VNN2 whole entry): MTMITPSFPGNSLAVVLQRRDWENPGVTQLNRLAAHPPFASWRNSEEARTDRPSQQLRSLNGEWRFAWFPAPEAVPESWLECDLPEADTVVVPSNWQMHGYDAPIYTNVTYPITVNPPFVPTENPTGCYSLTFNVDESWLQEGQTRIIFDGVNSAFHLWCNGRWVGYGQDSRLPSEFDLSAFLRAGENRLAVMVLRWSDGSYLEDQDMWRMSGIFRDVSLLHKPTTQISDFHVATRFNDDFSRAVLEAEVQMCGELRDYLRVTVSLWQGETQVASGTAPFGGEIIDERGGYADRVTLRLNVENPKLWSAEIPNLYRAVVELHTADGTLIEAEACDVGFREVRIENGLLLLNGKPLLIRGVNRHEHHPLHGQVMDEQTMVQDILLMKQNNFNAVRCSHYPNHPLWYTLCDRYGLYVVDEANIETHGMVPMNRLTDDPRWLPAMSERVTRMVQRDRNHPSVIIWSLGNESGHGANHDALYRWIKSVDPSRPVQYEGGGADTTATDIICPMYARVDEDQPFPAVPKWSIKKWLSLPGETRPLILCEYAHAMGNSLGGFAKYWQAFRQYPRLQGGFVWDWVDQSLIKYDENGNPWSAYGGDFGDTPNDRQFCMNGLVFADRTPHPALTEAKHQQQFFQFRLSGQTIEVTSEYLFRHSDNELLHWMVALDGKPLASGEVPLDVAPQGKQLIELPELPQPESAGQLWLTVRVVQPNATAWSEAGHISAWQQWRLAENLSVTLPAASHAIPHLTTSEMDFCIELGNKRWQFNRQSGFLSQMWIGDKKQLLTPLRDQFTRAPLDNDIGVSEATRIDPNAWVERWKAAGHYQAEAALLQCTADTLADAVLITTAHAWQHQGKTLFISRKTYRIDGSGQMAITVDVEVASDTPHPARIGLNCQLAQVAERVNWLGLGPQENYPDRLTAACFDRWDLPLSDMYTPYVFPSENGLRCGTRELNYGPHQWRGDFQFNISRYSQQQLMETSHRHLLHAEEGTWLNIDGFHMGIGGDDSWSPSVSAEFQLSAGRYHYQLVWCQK

[3] = molecular target: T1, High affinity choline transporter 1 (Homo sapiens, UniProt Q9GZV3); assay: CHT inhibitors, dose response, cell-based, 5-point CRC, membrane potential dye (AID 504840); format: functional
T1 sequence (Q9GZV3 whole entry): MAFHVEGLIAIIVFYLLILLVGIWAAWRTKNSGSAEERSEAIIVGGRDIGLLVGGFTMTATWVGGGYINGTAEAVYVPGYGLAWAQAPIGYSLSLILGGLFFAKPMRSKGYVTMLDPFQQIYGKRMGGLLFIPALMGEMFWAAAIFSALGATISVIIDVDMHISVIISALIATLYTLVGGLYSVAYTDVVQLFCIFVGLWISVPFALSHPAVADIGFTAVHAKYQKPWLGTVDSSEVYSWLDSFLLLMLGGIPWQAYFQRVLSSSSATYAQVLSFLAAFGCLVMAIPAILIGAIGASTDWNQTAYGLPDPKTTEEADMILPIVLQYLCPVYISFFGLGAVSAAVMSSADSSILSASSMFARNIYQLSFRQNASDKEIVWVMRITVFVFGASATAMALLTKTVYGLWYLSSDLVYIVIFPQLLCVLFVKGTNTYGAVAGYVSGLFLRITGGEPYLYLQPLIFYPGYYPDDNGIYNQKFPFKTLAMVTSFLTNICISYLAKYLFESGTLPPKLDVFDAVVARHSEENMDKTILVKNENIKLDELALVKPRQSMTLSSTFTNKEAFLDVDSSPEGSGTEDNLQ

[4] = system: Streptococcus sp. 'group A'; assay: growth inhibition of control SK(-) GAS strain, dose response, counter-screen for streptokinase expression inhibitor project, luminescence, kanamycin, BacTiterGlo, confirmation (AID 1900); format: functional, organism-based
[5] = system: BJ; assay: cytotoxicity toward BJ-TERT-LT-ST fibroblasts, dose response, cell-based, RAS-independent, luminescence (AID 1935); format: functional; conditions: Homo sapiens;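 note: BJ fibroblasts immortalized with TERT plus LT and ST oncogenes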
[6] = system: Streptococcus; assay: Group A Streptococcus viability loss, dose response, counter-screen for streptokinase expression inhibitor project, luminescence, BacTiterGlo (AID 1915); format: functional, organism-based;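 note: potency for reduction of bacterial viability or growth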
[7] = cytotoxicity toward DRD oncogenic fibroblasts, dose response, cell-based, non-viral oncogenic, luminescence (AID 1934); format: functional; conditions: Homo sapiens
[8] = molecular target: T2, Type-1 angiotensin II receptor (Homo sapiens, UniProt P30556); assay: AT1 receptor antagonists, dose response, selectivity assay for APJ receptor antagonist project, cell-based, uHTS hits (AID 463214); format: functional;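 note: antagonist potency against angiotensin II stimulated AT1 response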
T2 sequence (P30556 whole entry): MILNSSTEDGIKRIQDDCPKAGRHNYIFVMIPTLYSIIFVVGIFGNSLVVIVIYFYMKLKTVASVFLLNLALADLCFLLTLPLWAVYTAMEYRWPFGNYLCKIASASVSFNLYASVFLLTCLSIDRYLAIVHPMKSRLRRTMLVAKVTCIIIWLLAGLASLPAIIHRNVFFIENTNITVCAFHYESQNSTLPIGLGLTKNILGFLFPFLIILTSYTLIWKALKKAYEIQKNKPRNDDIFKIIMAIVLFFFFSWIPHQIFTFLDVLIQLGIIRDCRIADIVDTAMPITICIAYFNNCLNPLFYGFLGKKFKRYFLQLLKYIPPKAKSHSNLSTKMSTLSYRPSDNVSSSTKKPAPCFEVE

[9] = system: BJ; assay: cells; format: functional, cell-based; conditions: Homo sapiens
[10] = molecular target: T1, High affinity choline transporter 1; assay: CHT inhibitors, dose response, cell-based, 10-point CRC, membrane potential dye (AID 588401); format: functional;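 note: membrane potential dye fluorescence of choline-evoked depolarization via CHT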
[11] = system: BJ; assay: cytotoxicity toward BJ-TERT fibroblasts, dose response, cell-based, RAS-independent, luminescence (AID 1933); format: functional; conditions: Homo sapiens
[12] = molecular target: Beta Lactamase (Pseudomonas aeruginosa, UniProt Q932Y6); assay: beta-lactamase reporter inhibitor potency, dose response, artefact control for TLR9-MyD88 binding inhibitor project, BLA reporter cells, FRET fluorescence (AID 588341); format: cell-based;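 note: cell based assay in CHO-K1 cells stably expressing beta-lactamase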
Sequence of Beta Lactamase (Q932Y6 whole entry, the tested form may be a part): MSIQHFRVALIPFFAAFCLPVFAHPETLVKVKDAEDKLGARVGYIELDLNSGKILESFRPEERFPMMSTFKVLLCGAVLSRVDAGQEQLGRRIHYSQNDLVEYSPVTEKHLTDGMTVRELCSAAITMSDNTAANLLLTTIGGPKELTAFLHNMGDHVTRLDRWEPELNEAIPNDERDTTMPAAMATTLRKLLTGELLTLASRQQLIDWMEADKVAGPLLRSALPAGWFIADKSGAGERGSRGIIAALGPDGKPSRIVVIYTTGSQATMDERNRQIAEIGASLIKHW

[13] = system: CHO; assay: cytotoxicity in TLR9-MyD88 CHO cells, dose response, cytotoxicity control for TLR9-MyD88 binding inhibitor project, cell-based, luminescence (AID 588339); format: functional, hamster; conditions: Cricetulus griseus;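 note: CHO cells stably coexpressing TLR9 and MyD88 fusions from primary screen; compound exposure lasted 48 hours before viability readout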
[14] = molecular target: Large T antigen (Simian virus 40, UniProt P03070); format: functional, Betapolyomavirus macacae;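 note: Confirmatory-stage PubChem screen for compounds that inhibit SV40 T antigen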
Sequence of Large T antigen (P03070 whole entry): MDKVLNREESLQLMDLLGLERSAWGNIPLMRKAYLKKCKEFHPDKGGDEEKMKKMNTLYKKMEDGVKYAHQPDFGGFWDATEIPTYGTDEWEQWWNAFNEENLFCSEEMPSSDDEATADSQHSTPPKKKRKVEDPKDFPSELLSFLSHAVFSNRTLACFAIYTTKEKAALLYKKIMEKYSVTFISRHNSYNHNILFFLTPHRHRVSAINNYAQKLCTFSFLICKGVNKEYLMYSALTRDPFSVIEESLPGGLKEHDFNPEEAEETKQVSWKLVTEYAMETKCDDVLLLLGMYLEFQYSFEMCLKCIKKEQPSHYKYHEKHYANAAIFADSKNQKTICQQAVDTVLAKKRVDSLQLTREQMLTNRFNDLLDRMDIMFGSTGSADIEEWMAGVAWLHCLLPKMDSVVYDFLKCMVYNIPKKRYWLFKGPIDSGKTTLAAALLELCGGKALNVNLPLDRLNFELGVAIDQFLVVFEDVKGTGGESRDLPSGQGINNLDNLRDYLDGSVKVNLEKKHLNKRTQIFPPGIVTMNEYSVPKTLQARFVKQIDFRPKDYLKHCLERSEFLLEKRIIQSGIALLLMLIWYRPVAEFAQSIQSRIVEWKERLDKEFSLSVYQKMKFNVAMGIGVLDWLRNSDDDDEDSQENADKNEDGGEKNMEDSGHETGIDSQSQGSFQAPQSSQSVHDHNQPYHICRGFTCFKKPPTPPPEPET

[15] = molecular target: T3, Heat shock factor protein 1 (Mus musculus, UniProt P38532); assay: HSF1 potentiators in luciferase reporter cells, confirmation, cell-based, NIH3T3, luminescence, dose retest (AID 435004); format: functional;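 note: stress induced by proteasome inhibitor MG132 added 30 min after compound; luciferase reporter driven by HSF1 response element in NIH3T3 cells; actives raise luminescence as potentiators of the MG132 stress response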
T3 sequence (P38532 whole entry): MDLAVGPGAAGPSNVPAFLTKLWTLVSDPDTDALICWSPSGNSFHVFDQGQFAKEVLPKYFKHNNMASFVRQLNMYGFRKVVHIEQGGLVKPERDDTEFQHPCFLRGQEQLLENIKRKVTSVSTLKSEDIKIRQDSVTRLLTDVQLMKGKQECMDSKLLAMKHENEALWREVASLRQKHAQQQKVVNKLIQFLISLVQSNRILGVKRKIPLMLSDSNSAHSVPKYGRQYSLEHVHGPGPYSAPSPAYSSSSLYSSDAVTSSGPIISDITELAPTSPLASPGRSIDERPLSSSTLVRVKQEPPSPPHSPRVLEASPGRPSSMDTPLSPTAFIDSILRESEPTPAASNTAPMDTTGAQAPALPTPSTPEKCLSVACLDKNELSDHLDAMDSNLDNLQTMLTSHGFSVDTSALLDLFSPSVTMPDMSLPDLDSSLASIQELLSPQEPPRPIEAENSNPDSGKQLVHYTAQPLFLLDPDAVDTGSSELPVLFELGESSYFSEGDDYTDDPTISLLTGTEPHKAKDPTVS

[16] = inhibitors of intracellular T. cruzi replication, confirmation, NIH3T3 host cells, beta-gal luminescence (AID 2044); format: functional, cell-based;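 note: intracellular parasites grown in NIH/3T3 mouse fibroblasts as host cells; luminescent beta-galactosidase reporter signal from transgenic T. cruzi replicating inside host cells; inhibitors lower the luminescence signal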
[17] = cytotoxicity toward NIH3T3 fibroblasts, dose response, counter-screen, cell-based, ATP luminescence, mouse fibroblasts (AID 2010); format: functional;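 note: cells exposed to compound for about 90 hours before reading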
[18] = molecular target: T4, Streptokinase A (Streptococcus pyogenes serotype M1, UniProt P10520); assay: S. pyogenes streptokinase expression inhibitors, potency, dose response, plasminogen activation absorbance, OD405 (AID 1914); format: functional, Streptococcus pyogenes M1 GAS;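 note: secreted streptokinase activity via plasminogen activation per viability signal from cell pellet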
T4 sequence (P10520 whole entry): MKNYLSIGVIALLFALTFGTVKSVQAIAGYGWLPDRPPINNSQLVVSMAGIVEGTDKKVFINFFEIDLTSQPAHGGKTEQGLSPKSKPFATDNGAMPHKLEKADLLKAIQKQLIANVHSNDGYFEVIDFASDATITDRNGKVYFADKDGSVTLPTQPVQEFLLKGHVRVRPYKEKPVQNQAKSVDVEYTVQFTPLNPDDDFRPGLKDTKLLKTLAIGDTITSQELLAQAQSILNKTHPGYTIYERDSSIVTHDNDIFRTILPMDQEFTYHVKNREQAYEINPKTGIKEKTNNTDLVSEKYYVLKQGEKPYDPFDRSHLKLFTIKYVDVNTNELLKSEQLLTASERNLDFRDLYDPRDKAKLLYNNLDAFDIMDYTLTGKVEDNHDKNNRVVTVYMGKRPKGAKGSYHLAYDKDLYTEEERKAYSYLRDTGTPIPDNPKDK

In the case of CCn1nc(C)cc1-c1nnc(Sc2ncc([N+](=O)[O-])s2)n1C, the IC50 [1] is reported as 0.802 µM (active), the EC50 [2] is reported as > 40 µM (inactive) and the IC50 [3] is reported as 8.13 µM (active). The EC50 [4] was 7.07 µM (active), the EC50 [5] was 3.46 µM (inconclusive) and the EC50 [6] was 12.4 µM (active). For the same compound, the EC50 [7] was 5.37 µM (active), the IC50 [8] was 5.36 µM (active) and the EC50 [9] was 7.27 µM (active). The IC50 [10] was 3.76 µM (active), the EC50 [11] was 2.09 µM (active) and the IC50 [12] was 46 µM (inactive). The IC50 [13] was 1.08 µM (active), the IC50 [14] was 17.6 µM (active) and the EC50 [15] was 2.9 µM (inconclusive). For the same compound, the EC50 [16] was 0.759 µM (active), the EC50 [17] was 3.07 µM (active) and the EC50 [18] was > 150 µM (not active).
